Measurements from patent US9365604B2, “Oligomer-nucleoside phosphate conjugates” (NEKTAR THERAPEUTICS, priority 2007, dated 2016).
Like-named read-outs stand apart in the source and are kept apart here.

Legend:
[1] = Bi-directional permeability in Caco-2 cells; details: human
From the text: (§6) Bi-Directional Permeability of PEG-Floxuridine Conjugates in Caco-2 and MDCK Cells

MDCK cells [2] = tested on: MDCK cells
From the text: as §6

[3] = Bi-directional permeability in MDCK cells; details: dog
From the text: as §6

in vitro [4] = details: dog, MDCK
From the text: as §6

Caco-2 cells [5] = tested on: Caco-2 cells
From the text: as §6

in vitro [6] = details: human, Caco-2
From the text: as §6

Caco-2 cells [7] = test: Bi-directional permeability in Caco-2 cells
From the text: as §6

MDCK cells [8] = test: Bi-directional permeability in MDCK cells
From the text: as §6

NCI/ADR-RES = test: Sulforhodamine B (SRB) growth inhibition assay; assay type: cell-based, Human; details: cells exposed for 24 h, read-out: GI50 values (μM) NCI/ADR-RES
Protocol: (§1) In Vitro Screening of PEG-Gemcitabine Monophosphate in Selected Human Cancer Cell Lines
(§2) The aim was to determine the GI50 values for PEG-floxuridine conjugates against a panel of cell lines, and based on previous data from Xenograft studies. The cells were exposed for 24 h, and cell viability assessed by using the Sulphorhodamine (SRB) assay. The test articles were solubilized in dimethylsulfoxide and were tested at four different molar (M) concentrations; 10^−4, 10^−5, 10^−6, M. GI50 (the concentration needed to reduce the growth of treated cells to half that of untreated control cells) was calculated for each condition ([(Ti−Tz)/(C-Tz)]×100=50, where Ti, Tz, and C refer to absorbance values obtained from each tested concentration, time zero, and control treatment, respectively).
as §2, with “The objective” for “The aim”, “the IC50” for “the GI50”, “for PEG-gemcitabine” for “for PEG-floxuridine”, “in dimethyl sulfoxide” for “in dimethylsulfoxide”, “10^−6, 10^−7” for “10^−6,”, “condition ([(Ti−Tz)/(C−Tz)]×100=50,” for “condition ([(Ti−Tz)/(C-Tz)]×100=50,”

HCT15 = test: Sulforhodamine B (SRB) growth inhibition assay; assay type: cell-based, Human; details: SRB assay, cells exposed for 24 h, read-out: GI50 values (μM) HCT15
Protocol: as §1
as §2, with “The cells were exposed for 24 h, and cell viability assessed by using the Sulphorhodamine (SRB) assay.” left out
(§3) The objective was to determine the IC50 values for PEG-gemcitabine conjugates against a panel of cell lines, and based on previous data from Xenograft studies. […] The test articles were solubilized in dimethyl sulfoxide and were tested at four different molar (M) concentrations; 10^−4, 10^−5, 10^−6, 10^−7 M. GI50 (the concentration needed to reduce the growth of treated cells to half that of untreated control cells) was calculated for each condition ([(Ti−Tz)/(C−Tz)]×100=50, where Ti, Tz, and C refer to absorbance values obtained from each tested concentration, time zero, and control treatment, respectively).

COLO205 = test: Sulforhodamine B (SRB) growth inhibition assay; assay type: cell-based, Human; details: COLO205; SRB assay, cells exposed for 24 h; read-out: GI50 values (μM) COLO205
Protocol: as §1
as §2, with “The cells were exposed for 24 h, and cell viability assessed by using the Sulphorhodamine (SRB) assay.” left out
as §3

MCF7 = test: Sulforhodamine B (SRB) growth inhibition assay; assay type: cell-based, Human; details: for ratio vs flox (GI50) MCF7: GI50 of conjugate vs floxuridine; for GI50: SRB assay
Protocol: as §1
as §2, with “The cells were exposed for 24 h, and cell viability assessed by using the Sulphorhodamine (SRB) assay.” left out
as §3

Hop62 = test: Sulforhodamine B (SRB) growth inhibition assay; assay type: cell-based, Human; details: for ratio vs flox (GI50) Hop62: GI50 of conjugate vs floxuridine; for GI50: SRB assay, cells exposed for 24 h, read-out: GI50 values (μM) Hop62
Protocol: as §1
as §2, with “The cells were exposed for 24 h, and cell viability assessed by using the Sulphorhodamine (SRB) assay.” left out
as §3

A2780 = test: Sulforhodamine B (SRB) growth inhibition assay; assay type: cell-based, Human; details: for ratio vs flox (GI50) A2780: GI50 of conjugate vs floxuridine; for GI50: SRB assay, cells exposed for 24 h, read-out: GI50 values (μM) A2780
Protocol: as §1
as §2, with “The cells were exposed for 24 h, and cell viability assessed by using the Sulphorhodamine (SRB) assay.” left out
as §3

HT29 = test: Sulforhodamine B (SRB) growth inhibition assay; assay type: cell-based, Human; details: for ratio vs flox (GI50) HT29: GI50 of conjugate vs floxuridine; for GI50: SRB assay, cells exposed for 24 h, read-out: GI50 values (μM) HT29
Protocol: as §1
as §2, with “The cells were exposed for 24 h, and cell viability assessed by using the Sulphorhodamine (SRB) assay.” left out
as §3

CAKI-1 = test: In vitro cytotoxicity assay (CellTiter-Glo); assay type: cell-based; details: for IC50: 72 h exposure, CellTiter-Glo
DU145 = test: Sulforhodamine B (SRB) growth inhibition assay; assay type: cell-based, Human; details: for ratio vs flox (GI50) DU145: GI50 of conjugate vs floxuridine; for GI50: SRB assay, cells exposed for 24 h, read-out: GI50 values (μM) DU145
Protocol: as §2, with “The cells were exposed for 24 h, and cell viability assessed by using the Sulphorhodamine (SRB) assay.” left out
as §3

MIA PaCa-2 = test: In vitro cytotoxicity assay (CellTiter-Glo); assay type: cell-based; details: for IC50: 72 h exposure, CellTiter-Glo
Protocol: (§4) The objective of these studies were to determine the IC50 values for PEG-floxuridine conjugates against floxuridine-resistant cell lines based on data from previous Xenograft studies. The cells were exposed for 72 h, and cell viability assessed by using the CellTiter-Glo assay.
(§5) The objective of these studies was to determine the IC50 values for PEG-gemcitabine conjugates against gemcitabine-resistant cell lines based on data from previous Xenograft studies. The cells were exposed for 72 h, and cell viability assessed by using the CellTiter-Glo assay.

HCT-116 = test: In vitro cytotoxicity assay (CellTiter-Glo); assay type: cell-based; details: for IC50: 72 h exposure, CellTiter-Glo
Protocol: as §4, §5

HT-29 = test: In vitro cytotoxicity assay (CellTiter-Glo); assay type: cell-based; details: for IC50: 72 h exposure, CellTiter-Glo
Protocol: as §4, §5

[9] = cells exposed for 24 h, read-out: GI50 values (μM) MCF7

Row | SMILES | Significant efflux (MDCK cells [2]) | Significant efflux (Caco-2 cells [5]) | GI50 (NCI/ADR-RES) | GI50 (HCT15) | GI50 (COLO205) | ratio vs flox (GI50) MCF7 (MCF7) | GI50 (MCF7; [9]) | ratio vs flox (GI50) Hop62 (Hop62) | GI50 (Hop62) | ratio vs flox (GI50) A2780 (A2780) | GI50 (A2780) | ratio vs flox (GI50) HT29 (HT29) | GI50 (HT29) | Ratio vs floxuridine (IC50) CAKI-1 (CAKI-1) | IC50 (CAKI-1) | ratio vs flox (GI50) DU145 (DU145) | GI50 (DU145) | Ratio vs floxuridine (IC50) MIA PaCa-2 (MIA PaCa-2) | IC50 (MIA PaCa-2) | Ratio vs floxuridine (IC50) HCT-116 (HCT-116) | also measured
1 | CCCCCOC(=O)Nc1nc(=O)n([C@@H]2O[C@H](C)[C@@H](O)[C@H]2O)cc1F [Capecitabine] | No | Yes | – | – | – | – | – | – | – | – | – | – | – | – | – | – | – | – | – | – | recovery ([1]; Caco-2, percent recovery A -> B): 110%; recovery ([1]; Caco-2, percent recovery B -> A): 99%; permeability through MDCK monolayers (in words) (MDCK cells [2]): relatively poor permeability; Papp B-A/Papp A-B (MDCK cells [2]; dog): 0.9; recovery ([3]; percent recovery A -> B): 104%; recovery ([3]; percent recovery B -> A): 99%; Papp A→B (in vitro [4]): 0.16 ×10⁻⁶ cm/s; Papp B→A (in vitro [4]): 0.14 ×10⁻⁶ cm/s; efflux ratio (in vitro [4]): 0.9; Absorption potential (Caco-2 cells [5]): High; permeability across Caco-2 monolayers (in words) (Caco-2 cells [5]): high permeability; Papp B-A/Papp A-B (Caco-2 cells [5]; human): 3.9; Papp A→B (in vitro [6]): 2.22 ×10⁻⁶ cm/s; Papp B→A (in vitro [6]): 8.71 ×10⁻⁶ cm/s; efflux ratio (in vitro [6]): 3.9
2 | COCCOCCOCCOCCOCCOCCOCCOP(=O)(O)OC[C@H]1O[C@@H](n2cc(F)c(=O)[nH]c2=O)C[C@@H]1O [Floxuridine Mono (mPEG7), 5′-floxuridine methoxy hepta(ethylene glycol) phosphate] | – | – | < 0.1 µM | ~32 µM | 1.9 µM | 0.9 | 0.13 µM | 417 | > 100 µM | 35 | 2.3 µM | 4 | > 100 µM | 1 | 157 nM | 0.005 | 0.13 µM | 2 | 96 nM | 2 | Papp A -> B (Caco-2 cells [7]): 0.14 10^−6 cm/s; Papp B -> A (Caco-2 cells [7]): 0.06 10^−6 cm/s; Papp B-A/Papp A-B (Caco-2 cells [7]): 0.4; Significant efflux (Caco-2 cells [7]): No; percent recovery A -> B (Caco-2 cells [7]): 79%; percent recovery B -> A (Caco-2 cells [7]): 89%; Papp A -> B (MDCK cells [8]): <0.06 10^−6 cm/s; Papp B -> A (MDCK cells [8]): <0.08 10^−6 cm/s; Significant efflux (MDCK cells [8]): No; percent recovery A -> B (MDCK cells [8]): 100%; percent recovery B -> A (MDCK cells [8]): 90%; GI50 (MCF7; 48 h drug exposure, read-out: GI50 in MCF7): 2.2 µM; IC50 (HCT-116): 48 nM; Ratio vs floxuridine (IC50) HT-29 (HT-29): 1; IC50 (HT-29): 76 nM
3 | COCCOCCOCCOCCOCCOCCOCCOP(=O)(OCCOCCOCCOCCOCCOCCOCCOC)OC[C@H]1O[C@@H](n2cc(F)c(=O)[nH]c2=O)C[C@@H]1O [Floxuridine Di (mPEG7), 5′-floxuridine di-methoxy hepta(ethylene glycol) phosphate] | – | – | – | – | – | 667 | > 100 µM | 417 | > 100 µM | 1538 | > 100 µM | 4 | > 100 µM | – | – | 4 | > 100 µM | – | – | – | –
4 | COCCOCCOCCOP(=O)(OCCOCCOCCOC)OC[C@H]1O[C@@H](n2cc(F)c(=O)[nH]c2=O)C[C@@H]1O [Floxuridine Di (mPEG3), 5′-floxuridine di-methoxy tri(ethylene glycol) phosphate] | – | – | – | – | – | 667 | > 100 µM | 417 | > 100 µM | 1538 | > 100 µM | 4 | > 100 µM | – | – | 4 | > 100 µM | – | – | – | –
5 | COCCOCCOCCOP(=O)(O)OC[C@H]1O[C@@H](n2cc(F)c(=O)[nH]c2=O)C[C@@H]1O [Floxuridine Mono (mPEG3), 5′-floxuridine methoxy tri(ethylene glycol) phosphate] | No | No | < 0.1 µM | 32 µM | 1.8 µM | 0.7 | 0.11 µM | 417 | > 100 µM | 32 | 2.1 µM | 4 | > 100 µM | 1 | 145 nM | 0.005 | 0.12 µM | 1 | 64 nM | 2 | Papp A -> B (MDCK cells [2]): <0.06 10^−6 cm/s; Papp B -> A (MDCK cells [2]): <0.07 10^−6 cm/s; percent recovery A -> B (MDCK cells [2]): 98%; percent recovery B -> A (MDCK cells [2]): 98%; Papp A -> B (Caco-2 cells [5]): <0.19 10^−6 cm/s; Papp B -> A (Caco-2 cells [5]): <0.25 10^−6 cm/s; percent recovery A -> B (Caco-2 cells [5]): 96%; percent recovery B -> A (Caco-2 cells [5]): 94%; IC50 (HCT-116): 56 nM; Ratio vs floxuridine (IC50) HT-29 (HT-29): 1; IC50 (HT-29): 87 nM
